Patent US20110020312A1, “METHODS FOR TREATMENT OF METABOLIC DISORDERS USING EPIMETABOLIC SHIFTERS, MULTIDIMENSIONAL INTRACELLULAR MOLECULES, OR ENVIRONMENTAL INFLUENCERS” (priority 2009, published 2011)

Legend:
HepG2 liver cancer cells = test: ApoStrand ELISA apoptosis assay (single-stranded DNA); format: cell-based
Description: The ApoStrand™ ELISA is based on the sensitivity of DNA in apoptotic cells to formamide denaturation and the detection of the denatured DNA with a monoclonal antibody to single-stranded DNA (ssDNA).

SCC cells [1] = test: Real-time PCR Heat Shock Protein Array; format: cell-based; conditions: 100 μM
Description: (§1) The control cells were untreated cells.
Heat Shock Arrays were run for SCC cells and the data of regulated genes is summarized below in Table 13.

SCC cells [2] = test: Real-time PCR Diabetes Array; format: cell-based; conditions: 100 μM
Description: as §1

[3] = system: Lactate Dehydrogenase (LDH); test: Western blot, Lactate Dehydrogenase levels; format: cell-based, human
Procedure: The samples were processed and run on a 4-12% Bis-Tris Novex NuPAGE gel as described above. The gels were run, transferred and stained essentially as described above.
After transfer each blot was dried for 15-20 minutes, activated with methanol for 5 seconds, washed with water for 5 minutes, and TBST for 15 minutes. The blots were blocked for 1 hour with 5% blocking reagent in TBS-T at room temperature and then washed 3 times with TBS-T (1×-15′; 2×5′ each) and probed with the primary antibody for Lactate Dehydrogenase (abcam ab2101; polyclonal) in 5% BSA (at 1:1000 dilutions) by incubation overnight at 4 deg C. with shaking. After the overnight incubation with primary antibody for Lactate Dehydrogenase, the blots were washed 3 times with TBS-T (1×-15′; 2×5′ each) and probed with the secondary antibody (rabbit antigoat; 1:10,000 dilution) for 1 h at room temperature. After 1 h of incubation with secondary antibodies, the blots were washed 3 times with TBS-T (1×-15′; 2×5′ each) and then incubated with ECF reagent for 5 mins and then each blot scanned with 5100 Fuji Laser scanner at 25 uM resolution, 16 bit, green laser, at 400V and at 500 V.
The PACA2 samples were processed and the gels were run, transferred, stained and scanned essentially as described above.
The levels of LDH and PDH were determined by probing the blots successively with primary antibodies for LDH and PDH, essentially as described above.
The above blots were stripped by incubating for 30 minutes with methanol, followed by two 10 minute washes with TBS-T, then 30 minutes of incubation with Stripping buffer at 50 deg C., and followed by two washes with 100 ml or more of TBS-T for 30′ each. The blots were scanned in laser scanner to check for complete stripping. The blots were activated with methanol for 5 seconds, washed with water for 5 minutes, and TBST for 15 minutes. The blots were blocked for 1 hour with 5% blocking reagent in TBS-T at room temperature and then washed 3 times with TBS-T (1×-15′; 2×5′ each) and probed with the primary antibody for LDH or Bik in 5% BSA in TBS-T by incubation overnight at 4 deg C. with gentle shaking. The primary antibody for LDH was from Abcam ab2101; antigoat; at 1:1000 dilution. The primary antibody for Bik was from Cell Signaling #9942; antirabbit; at 1:1000 dilution. After incubation with primary antibodies, the membranes were washed 3 times with TBS-T (1×-15′; 2×5′ each) and probed with the secondary antibody (LDH antigoat; Jackson Laboratories) and Bik antirabbit; 1:10,000 dilution) for 1 h on the orbital tilting shaker at room temperature. After 1 h of incubation, the blots were washed 3 times with TBS-T (1×-15′; 2×5′ each) and incubated with ECF reagent for 5 minutes and then each blot scanned with 5100 Fuji Laser scanner at 25 uM resolution, 16 bit, green laser, at 400V and at 500 V.
The above blots were stripped by incubating for 30 minutes with methanol, followed by two 10 minute washes with TBS-T, then 30 minutes of incubation with stripping buffer at 50 deg C., and followed by two washes with 100 ml or more of TBS-T for 30′ each. The blots were activated with methanol for 5 seconds, washed with water for 5 minutes, and TBST for 15 minutes. The blots ere blocked for 1 hour with 5% blocking reagent in TBS-T at room temperature and then washed 3 times with TBS-T (1×-15′; 2×5′ each) and probed with the primary antibody for LDH in 5% BSA or 5% milk by incubation overnight at 4 deg C. with gentle shaking. The primary antibody for LDH 080309b1 (Abcam ab2101; antigoat) was at 1:1000 dilution in 5% BSA. The primary antibody for LDH 080309b2 (Abcam ab2101; antigoat) was at 1:1000 dilution in 5% milk. After incubation with primary antibodies, the membranes were washed 3 times with TBS-T (1×-15′; 2×5′ each) and probed with the secondary antibody (Jackson Immuno Research antigoat; 1:10,000 dilution; 305-055-045) for 1 h. […]

Structure (SMILES): COC1=C(OC)C(=O)C(C/C=C(\C)CC/C=C(\C)CC/C=C(\C)CC/C=C(\C)CC/C=C(\C)CC/C=C(\C)CC/C=C(\C)CC/C=C(\C)CC/C=C(\C)CCC=C(C)C)=C(C)C1=O [Q10, Coenzyme Q10]
- detectable apoptosis (ApoStrand ELISA) (HepG2 liver cancer cells; 50 μM Q10): 17%
- detectable apoptosis (ApoStrand ELISA) (HepG2 liver cancer cells; 100 μM Q10): 32%
- DNAJA1 gene Regulation (SCC cells [1]; at 6 hours): Up regulated at 6
- DNAJB5 gene Regulation (SCC cells [1]; at 6 hours): Down regulated
- DNAJB13 gene Regulation (SCC cells [1]; at 6 hours): Down regulated
- DNAJC4 gene Regulation (SCC cells [1]; at 6 hours): Down regulated
- DNAJC5B gene Regulation (SCC cells [1]; at 6 hours): Down regulated
- DNAJC12 gene Regulation (SCC cells [1]; at 6 hours): Down regulated
- HSPA8 gene Regulation (SCC cells [1]; at 6 hours): Up regulated at 6
- HSPH1 gene Regulation (SCC cells [1]; at 6 hours): Up regulated at 6
- CCT6B gene Regulation (SCC cells [1]; at 24 hours): Down regulated
- TNFRSF1A gene Regulation (SCC cells [2]; at 6 and 24 hours): Down regulated
- G6PD gene Regulation (SCC cells [2]; at 6 hours): Down regulated
- ICAM1 gene Regulation (SCC cells [2]; at 6 hours): Down regulated
- INPPL1 gene Regulation (SCC cells [2]; at 6 hours): Down regulated
- NOS3 gene Regulation (SCC cells [2]; at 6 hours): Down regulated
- PIK3CD gene Regulation (SCC cells [2]; at 6 hours): Down regulated
- PPARA gene Regulation (SCC cells [2]; at 6 hours): Down regulated
- PYGL gene Regulation (SCC cells [2]; at 6 hours): Down regulated
- SREBF1 gene Regulation (SCC cells [2]; at 6 hours): Down regulated
- STXBP2 gene Regulation (SCC cells [2]; at 6 hours): Down regulated
- TNF gene Regulation (SCC cells [2]; at 6 hours): Down regulated
- VEGFA gene Regulation (SCC cells [2]; at 6 hours): Down regulated
- Lactate Dehydrogenase Average Volume as a % ([3]; HepG2, 5g24-50, 2 Experiments): 64%
- Lactate Dehydrogenase Average Volume as a % ([3]; HepG2, 5g24-100, 2 Experiments): 106%
- Lactate Dehydrogenase Average Volume as a % ([3]; HepG2, 5g48-50, 2 Experiments): 112%
- Lactate Dehydrogenase Average Volume as a % ([3]; HepG2, 5g48-100, 2 Experiments): 121%
- Lactate Dehydrogenase Normalized Volume ([3]; HepG2, 5g-50, 24 h): 7900
- Lactate Dehydrogenase Normalized Volume ([3]; HepG2, 5g-50, 48 h): 5188
- Lactate Dehydrogenase Normalized Volume ([3]; HepG2, 5g-100, 24 h): 6616
- Lactate Dehydrogenase Normalized Volume ([3]; HepG2, 5g-100, 48 h): 7319
- Lactate Dehydrogenase Average Volume as a % ([3]; HepG2, 22G24-50, 2 Experiments): 121%
- Lactate Dehydrogenase Average Volume as a % ([3]; HepG2, 22G24-100, 2 Experiments): 144%
- Lactate Dehydrogenase Average Volume as a % ([3]; HepG2, 22G48-50, 2 Experiments): 95%
- Lactate Dehydrogenase Average Volume as a % ([3]; HepG2, 22G48-100, 2 Experiments): 67%
- Lactate Dehydrogenase Normalized Volume ([3]; HepG2, 22G-50, 24 h): 7550
- Lactate Dehydrogenase Normalized Volume ([3]; HepG2, 22G-50, 48 h): 6173
- Lactate Dehydrogenase Normalized Volume ([3]; HepG2, 22G-100, 24 h): 7124
- Lactate Dehydrogenase Normalized Volume ([3]; HepG2, 22G-100, 48 h): 9141
- Lactate Dehydrogenase Normalized Volume ([3]; PACA2, 5g-50, 24 h): 5068
- Lactate Dehydrogenase Normalized Volume ([3]; PACA2, 5g-50, 48 h): 2978
- Lactate Dehydrogenase Normalized Volume ([3]; PACA2, 5g-100, 24 h): 3675
- Lactate Dehydrogenase Normalized Volume ([3]; PACA2, 5g-100, 48 h): 2396
- Lactate Dehydrogenase Normalized Volume ([3]; PACA2, 22G-50, 24 h): 10218
- Lactate Dehydrogenase Normalized Volume ([3]; PACA2, 22G-50, 48 h): 2575
- Lactate Dehydrogenase Normalized Volume ([3]; PACA2, 22G-100, 24 h): 7158
- Lactate Dehydrogenase Normalized Volume ([3]; PACA2, 22G-100, 48 h): 3557
- Lactate Dehydrogenase (LDH) expression ([3]; cancer): reduced
- Lactate Dehydrogenase (LDH) expression ([3]; normal cells): minimal effect
